Data published in PubChem BioAssay AID248 (DTP/NCI, 2004).
Several values for one entry are separate records, joined by “and”; a condition that tells them apart may be missing. Equal entries are not always repeated. Toxic doses and inconclusive results are not listed. No stated cut-off is given here; in the data, active means T/C of 150% or more; inactive means T/C below 125%.

System: L1210 leukemia ip in BDF1 mice, survival T/C
Assay: NCI In Vivo Anticancer Drug Screen. Data for tumor model L1210 Leukemia (intraperitoneal) in B6D2F1 (BDF1) mice
Conditions: endpoint: mean survival time, higher = longer survival
Procedure, shortened: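 In this screen, tumor-bearing mice given compound are compared to those given vehicle, and their survival values are reported as a treated-to-control quotient.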

[1] = dose: 6.25 mg/kg/injection, schedule: Q01DX009 (ip), vehicle: saline
[2] = dose: 12.5 mg/kg/injection, schedule: Q01DX009 (ip), vehicle: saline
[3] = dose: 25.0 mg/kg/injection, schedule: Q04DX003 (ip), vehicle: saline
[4] = dose: 100.0 mg/kg/injection, schedule: Q01DX009 (ip), vehicle: Klucel (hydroxypropylcellulose) (HPC)
[5] = dose: 200.0 mg/kg/injection, schedule: Q01DX009 (ip), vehicle: Klucel (hydroxypropylcellulose) (HPC)
[6] = dose: 400.0 mg/kg/injection, schedule: Q01DX009 (ip), vehicle: Klucel (hydroxypropylcellulose) (HPC)
[7] = dose: 25.0 mg/kg/injection, schedule: Q01DX009 (ip), vehicle: saline
[8] = dose: 100.0 mg/kg/injection, schedule: Q01DX001 (ip), vehicle: saline with Tween-80
[9] = dose: 200.0 mg/kg/injection, schedule: Q01DX001 (ip), vehicle: saline with Tween-80
[10] = dose: 100.0 mg/kg/injection, schedule: Q04DX002 (ip), vehicle: Klucel (hydroxypropylcellulose) (HPC)
[11] = dose: 200.0 mg/kg/injection, schedule: Q04DX002 (ip), vehicle: Klucel (hydroxypropylcellulose) (HPC)
[12] = dose: 400.0 mg/kg/injection, schedule: Q04DX002 (ip), vehicle: Klucel (hydroxypropylcellulose) (HPC)
[13] = dose: 100.0 mg/kg/injection, schedule: Q04DX003 (ip), vehicle: Klucel (hydroxypropylcellulose) (HPC)
[14] = dose: 200.0 mg/kg/injection, schedule: Q04DX003 (ip), vehicle: Klucel (hydroxypropylcellulose) (HPC)
[15] = dose: 400.0 mg/kg/injection, schedule: Q04DX003 (ip), vehicle: Klucel (hydroxypropylcellulose) (HPC)
[16] = dose: 50.0 mg/kg/injection, schedule: Q01DX001 (ip), vehicle: saline
[17] = dose: 100.0 mg/kg/injection, schedule: Q01DX001 (ip), vehicle: saline
[18] = dose: 200.0 mg/kg/injection, schedule: Q01DX001 (ip), vehicle: saline
[19] = dose: 400.0 mg/kg/injection, schedule: Q01DX001 (ip), vehicle: saline
[20] = dose: 100.0 mg/kg/injection, schedule: Q01DX001 (ip), vehicle: carboxymethylcellulose (CMC)
[21] = dose: 200.0 mg/kg/injection, schedule: Q01DX001 (ip), vehicle: carboxymethylcellulose (CMC)
[22] = dose: 400.0 mg/kg/injection, schedule: Q01DX001 (ip), vehicle: carboxymethylcellulose (CMC)

Measured: T/C

[O]=[Cr](=[O])([OH])[O][Cr](=[O])(=[O])[OH]
inactive: [1] 104 % of control | [2] 97 % of control | [3] 108 % of control

COCC(=N)C(C#N)(OC)C(=O)c1ccccc1 (configuration not stated)
inactive: dose: 75.0 mg/kg/injection, schedule: Q01DX001 (ip), vehicle: other 101 % of control | dose: 150.0 mg/kg/injection, schedule: Q01DX001 (ip), vehicle: other 90 % of control

CSc1ccc(NC(=O)SCc2ccccc2)cc1
inactive: [4] 97 % of control | [5] 95 % of control | [6] 95 % of control

Cc1cccc(-n2c(N)cc(=O)[nH]c2=S)n1
inactive: [2] 97 % of control | dose: 12.5 mg/kg/injection, schedule: Q04DX003 (ip), vehicle: saline 96 % of control | [7] 96 % of control | [3] 96 % of control | dose: 50.0 mg/kg/injection, schedule: Q01DX009 (ip), vehicle: saline 94 % of control and 105 % of control | dose: 50.0 mg/kg/injection, schedule: Q04DX003 (ip), vehicle: saline 91 % of control | dose: 100.0 mg/kg/injection, schedule: Q01DX009 (ip), vehicle: saline 87 % of control

CCOC(=O)c1ccc(NCc2nnc3nc(N)[nH]c(=O)c3n2)cc1
inactive: dose: 50.0 mg/kg/injection, schedule: Q01DX001 (ip), vehicle: saline with Tween-80 102 % of control | [8] 96 % of control | [9] 98 % of control

COC(=O)[C@@H]1[C@H](O)[C@H](C)[C@H](O)[C@H](C)/C=C\C=C(C)C(=O)Nc2c(C)c(OC(C)=O)c3c(c2O)C(=O)C(C)=C2OCOC(=C23)C(C)=C[C@@](C)(O)[C@H](O)[C@@H](C)[C@H]1OC(C)=O
inactive: [10] 96 % of control | [11] 101 % of control | [12] 101 % of control

Cc1cc2nc(C)c(=O)[nH]c2cc1C
inactive: [4] 95 % of control | [13] 96 % of control | [5] 98 % of control | [14] 92 % of control | [6] 91 % of control | [15] 92 % of control

Oc1cc(O)c(O)cc1O
inactive: [1] 102 % of control | dose: 6.25 mg/kg/injection, schedule: Q04DX003 (ip), vehicle: saline with Tween-80 93 % of control | [2] 102 % of control | dose: 12.5 mg/kg/injection, schedule: Q04DX003 (ip), vehicle: saline with Tween-80 97 % of control | [7] 110 % of control | dose: 25.0 mg/kg/injection, schedule: Q04DX003 (ip), vehicle: saline with Tween-80 98 % of control

CN(C)c1ccc2nc3ccc(=O)cc-3sc2c1
inactive: dose: 50.0 mg/kg/injection, schedule: Q04DX002 (ip), vehicle: Klucel (hydroxypropylcellulose) (HPC) 88 % of control | [10] 95 % of control | [11] 92 % of control | [12] 95 % of control

CCSC1OC(C(COC(C)=O)OC(C)=O)C(OC(C)=O)C1NC(=O)OCc1ccccc1 (configuration not stated)
inactive: [16] 100 % of control | [17] 97 % of control | [18] 97 % of control | [19] 91 % of control

COc1c(CO)c2c(c(OC)c1OC)-c1ccc(OC)c(=O)cc1[C@@H](NC(C)=O)CC2
inactive: dose: 33.0 mg/kg/injection, schedule: Q01DX015 (ip), vehicle: saline 122 % of control

O=C(Nc1cccc2cnccc12)c1ccc(C(=O)Nc2cccc3cnccc23)cc1
inactive: [17] 98 % of control | [18] 104 % of control | [19] 104 % of control

O=C(NS(=O)(=O)c1ccc(Cl)cc1)OCCCl
inactive: [13] 96 % of control | [14] 95 % of control | [15] 98 % of control

CCOC(=O)c1cnc(N)nc1
inactive: [13] 97 % of control | [14] 101 % of control | [15] 98 % of control

NC(=O)C(c1ccccc1)C1(O)CCCCC1 (configuration not stated)
inactive: [16] 102 % of control | [17] 104 % of control | [18] 96 % of control | [19] 91 % of control

CCOC(=O)Nc1cc(N)c([N+](=O)[O-])c(NC(c2ccccc2)c2ccccc2)n1
inactive: [20] 95 % of control | [21] 87 % of control | [22] 92 % of control

Cc1ccc(S(=O)(=O)C2CCCC2Cl)cc1 (configuration not stated)
inactive: [20] 109 % of control | [17] 107 % of control | [21] 104 % of control | [18] 104 % of control | [22] 104 % of control | [19] 87 % of control

Cc1cc(=O)oc2cc(OC(=O)Nc3ccccc3)ccc12
inactive: dose: 100.0 mg/kg/injection, schedule: Q01DX001 (ip), vehicle: Klucel (hydroxypropylcellulose) (HPC) 93 % of control | [4] 94 % of control and 105 % of control | [10] 108 % of control and 118 % of control | [13] 105 % of control | dose: 200.0 mg/kg/injection, schedule: Q01DX001 (ip), vehicle: Klucel (hydroxypropylcellulose) (HPC) 104 % of control | [5] 98 % of control | [11] 112 % of control and 92 % of control | [14] 100 % of control | dose: 400.0 mg/kg/injection, schedule: Q01DX001 (ip), vehicle: Klucel (hydroxypropylcellulose) (HPC) 108 % of control | [15] 92 % of control

c1c[nH]c(N=Nc2ccc(-c3ccc(N=Nc4ncc[nH]4)cc3)cc2)n1
inactive: dose: 50.0 mg/kg/injection, schedule: Q01DX009 (ip), vehicle: saline with Tween-80 97 % of control | dose: 100.0 mg/kg/injection, schedule: Q01DX009 (ip), vehicle: saline with Tween-80 90 % of control | dose: 200.0 mg/kg/injection, schedule: Q01DX009 (ip), vehicle: saline with Tween-80 90 % of control

CN=C(NC(C=O)C(O)C(O)C(O)CO)c1ccc(NC(=O)c2ccc(C(=O)Nc3ccc(C(=NC)NC(C=O)C(O)C(O)C(O)CO)cc3)cc2)cc1 (configuration not stated)
inactive: dose: 62.0 mg/kg/injection, schedule: Q01DX Z (ip), vehicle: water 111 % of control | dose: 125.0 mg/kg/injection, schedule: Q01DX Z (ip), vehicle: water 115 % of control

CC#CC(O)(C(=O)OC)c1ccccc1 (configuration not stated)
inactive: [20] 94 % of control | [21] 102 % of control | [22] 108 % of control

CCOC(=O)c1ccc(NS(=O)(=O)c2ccc(NC(C)=O)cc2)cc1
inactive: [10] 88 % of control | [11] 94 % of control | [12] 103 % of control

O=[N+]([O-])c1ccc(/C=C/c2ccccn2)s1
inactive: [13] 96 % of control | dose: 100.0 mg/kg/injection, schedule: Q04DX003 (ip), vehicle: water 101 % of control | [14] 112 % of control | dose: 200.0 mg/kg/injection, schedule: Q04DX003 (ip), vehicle: water 98 % of control | [15] 96 % of control | dose: 400.0 mg/kg/injection, schedule: Q04DX003 (ip), vehicle: water 97 % of control

COc1cc(O)c2c(c1)Cc1cc(C)cc(O)c1C2=O
inactive: dose: 12.5 mg/kg/injection, schedule: Q04DX002 (ip), vehicle: Klucel (hydroxypropylcellulose) (HPC) 93 % of control | dose: 25.0 mg/kg/injection, schedule: Q04DX002 (ip), vehicle: Klucel (hydroxypropylcellulose) (HPC) 93 % of control

Nc1ncnc2nc(-c3ccc(CNC(=O)CCc4ccc(S(=O)(=O)F)cc4)cc3)[nH]c12
inactive: [8] 89 % of control | [9] 89 % of control | dose: 400.0 mg/kg/injection, schedule: Q01DX001 (ip), vehicle: saline with Tween-80 89 % of control

N#CCC[P+](c1ccccc1)(c1ccccc1)c1ccccc1
inactive: dose: 5.0 mg/kg/injection, schedule: Q01DX001 (ip), vehicle: saline 102 % of control | dose: 10.0 mg/kg/injection, schedule: Q01DX001 (ip), vehicle: saline 102 % of control | dose: 20.0 mg/kg/injection, schedule: Q01DX001 (ip), vehicle: saline 102 % of control | dose: 40.0 mg/kg/injection, schedule: Q01DX001 (ip), vehicle: saline 102 % of control | dose: 80.0 mg/kg/injection, schedule: Q01DX001 (ip), vehicle: saline 100 % of control | [17] 109 % of control | [18] 108 % of control

O=[N+]([O-])c1ccc(OC(=S)Cl)cc1
inactive: dose: 6.25 mg/kg/injection, schedule: Q04DX002 (ip), vehicle: saline with Tween-80 99 % of control | dose: 12.5 mg/kg/injection, schedule: Q04DX002 (ip), vehicle: saline with Tween-80 101 % of control | dose: 25.0 mg/kg/injection, schedule: Q04DX002 (ip), vehicle: saline with Tween-80 96 % of control | dose: 100.0 mg/kg/injection, schedule: Q04DX003 (ip), vehicle: saline with Tween-80 103 % of control
